Reference: US7928090B2, “External preparation composition” (Lion Corporation, priority 2002, dated 2011)

Tests used:
guinea pig skin = assay: Continuous irritative test of guinea pig skin (Draize method); format: in vivo, guinea pig (Hartley series); conditions: 0.5% in ethanol/propylene glycol (7:3), 3 days straight, full marks 8 points
Protocol: Each left and right two spots (4 spots/head) of applying parts having a frame of 2 cm×2 cm were provided on the back of a shaved guinea pig (Hartley series, 7 weeks of age, female, N=10), and each 50 μL of an ethanol/propylene glycol (7:3) solution containing 0.5% of the respective acyl glucosamine derivatives shown in the following Table 1 was applied once a day on the respective frames.
A skin irritative score after application for 3 days straight was evaluated according to the following evaluation criteria (Draize method). The above irritative score was shown by the total points (full marks: 8 points) of erythema and edema.
Evaluation Criteria of Skin Irritative Score:
3: middle to strong erythema
4: very strong erythema to crust
1: very slight edema formation
2: slight edema formation
3: middle edema formation
4: strong edema formation

[1] = system: back skin of hairless mice irradiated with UVB; assay: Wrinkle-improving test; format: in vivo, hairless mice (hos: HR-1); conditions: 0.05% in ethanol/propylene glycol (7:3), 100 μL once a day, five times a week, 8 weeks; versus control group
Protocol: (§1) Four (4) hairless mice per 1 group (hos: HR-1, 10 weeks of age, female) were irradiated on the back skin once a day with UVB at 50 mJ/cm^2 five times a week over a period of 10 weeks. After finishing irradiation, each 100 μL of an ethanol/propylene glycol (7:3) solution containing 0.05% of various acyl glucosamine derivatives shown in the following Table 3 was applied on the mouse back in a frequency of once a day and five times a week over 8 weeks.
After finishing application for 8 weeks, the degree of wrinkles was visually evaluated according to the following evaluation criteria and calculation equation. A control group applied with the ethanol/propylene glycol (7:3) solution was evaluated as a control in the same manner.
Evaluation Criteria of the Degree of Wrinkles:
Evaluation point 0: a lot of fine striations is present on the back and the flank; fine striations run in a direction from the head to the tail; and the striations appear or disappear with the motion of the mouse.
Evaluation point 1: all fine striations along the spine are not observed; a few shallow and coarse wrinkles run perpendicularly to the head-to-tail direction; and the striations appear or disappear with the motion of the mouse.
The respective bodies were evaluated by an evaluation point of a 0.5 unit to calculate an average point for the respective groups, and the wrinkle-improving rate was calculated for the respective groups according to the following equation (II). Wrinkle-improving rate (%)=[(average value of the control group−average value of a glucosamine derivative-applied group)/(average value of the control group)]×100 (II)

[2] = system: back skin of hairless mice irradiated with UVB; assay: Coarse texture-improving test; format: in vivo, hairless mice (hos: HR-1); conditions: 0.05% in ethanol/propylene glycol (7:3), 100 μL, 4 weeks; texture intersection points relative to non-irradiated group (control 24)
Protocol: as §1, with “at 40” for “at 50”, “mJ/cm^2 three” for “mJ/cm^2 five”, “of 6” for “of 10”, “Table 4 or an ethanol/propylene glycol (7:3) solution as a control” for “Table 3”, “over 4” for “over 8”
After finishing application, a replica agent (brand name SILFLO®; manufactured by UK FLEXICO DEVELOPMENTS LTD.) was used to obtain a replica of a mouse back skin. A replica of a UV-non-irradiated group (4 heads) was obtained as a control in the same manner.
The enlarged photographs of the respective replicas were taken through a macro lens (magnification: four times), and the photographs were used to evaluate “coarsening of the texture”.
The coarseness of the texture was defined by a “number of texture intersection point”, wherein a point in which three or more sulci cutis are joined is counted as one intersection point, and the number of the texture intersection points present in a square of 1 cm×1 cm was counted on the replica photograph.
An average point for the respective groups was calculated, and the texture-improving rate was calculated according to the following equation (III). Texture-improving rate (%)=[(number of texture intersection of applied group)/(number of texture intersection point of non-irradiated group)]×100 (III)

[3] = system: skin roughness in the inside of a forearm of a human being; assay: Skin roughness-improving test (SDS-induced skin roughness); format: in vivo; conditions: hydrophilic ointment with 0.05%, twice a day, 3 days; conductance relative to ointment with no tested substance = 100
Protocol: A 10% SDS solution was used to artificially form a skin roughness in the inside of a forearm of a human being, and a hydrophilic ointment blended with 0.05% of various acyl glucosamine derivatives shown in the following Table 5 was applied thereon twice a day.
The skin roughness-improving degree observed 3 days later after application was evaluated using a change in a stratum corneum water content as an index. The stratum corneum water content is measured in terms of a conductance (μS). The improving degree was shown by a relative value, wherein the conductance observed when applying the hydrophilic ointment blended with no acyl glucosamine derivative was set at 100, and the skin roughness-improving rate was calculated according to the following equation (IV). Skin roughness-improving rate (%)=[(conductance observed when applying the ointment blended with the tested substance)/(conductance observed when applying the ointment blended with no tested substance)]×100 (IV)

acne patients = assay: Acne-improvement evaluation; format: in vivo, human; conditions: essence with 0.05%, one month; for Evaluation X (worsened), number of subjects / Evaluation Δ (no change), number of subjects / Evaluation ⊚ (notably improved), number of subjects / Evaluation ◯ (improved), number of subjects: applied on face several times a day; for Acne treating effect: percentage of subjects rated improved or better
Protocol: Prepared was an essence for acne shown in the following composition example in which 0.05% of various acyl glucosamine derivatives shown in the following Table 6 was blended. An essence which was not blended with an acyl glucosamine derivative was prepared as a control.
Sixty acne patients were picked up as subjects to apply everyday the respective essences on the faces thereof several times a day, and the therapeutic effect against the acnes was visually evaluated a month later according to four degrees of the following evaluation criteria.
In the four degree evaluation described above, improvement (∘) or better effect (⊚) was regarded as “effective for treating acnes”, and the subjects showing a treating effect were shown by a numerical value (percentage).

[4] = system: pigmentation on the backs of color guinea pigs; assay: Whitening evaluation (UV-induced pigmentation); format: in vivo; parameters: key: +++: notably improved; ++: improved; +: a little improved; ±: no change; conditions: 0.05% in ethanol/propylene glycol (7:3), 30 μL once a day, five times a week, 4 weeks; visual change in pigmentation
Protocol: Back body hair of color guinea pigs were shaved by means of a hair clipper and a shaver, and they were irradiated with UV rays once a day, 4 times a week and 8 times in total, whereby 4 parts of pigmentation having an area of about 2.25 cm^2 were formed on the backs of the respective guinea pigs.
Each 30 μL of an ethanol/propylene glycol (7:3) solution containing 0.05% of various acyl glucosamine derivatives shown in the following Table 7 was applied thereon in a frequency of once a day and five times a week over 4 weeks, and a change in the pigmentation was visually evaluated according to four degrees of the following evaluation criteria. The solution containing no acyl glucosamine derivative was used for a comparative example.

[5] = Table 1, 50 μL once a day, total of erythema and edema

SMILES | Draize score (guinea pig skin; Table 2, by stereoisomer ratio) [points] | Draize score (guinea pig skin; [5]) [points] | Evaluation X (worsened), number of subjects (acne patients) | Evaluation Δ (no change), number of subjects (acne patients) | Evaluation ⊚ (notably improved), number of subjects (acne patients) | Evaluation ◯ (improved), number of subjects (acne patients) | further results
CC(=O)OC[C@H]1OC(OC(C)=O)[C@H](NC(=O)/C=C(C)/C=C/C=C(C)/C=C/C2=C(C)CCCC2(C)C)[C@@H](OC(C)=O)[C@@H]1OC(C)=O (single isomer, unassigned) [1,3,4,6-tetra-O-acetyl-N-retinoyl-D-glucosamine (9-cis isome] [listing 1 of 2 here] | 0.0 |  |  |  |  |  | 
CC(=O)OC[C@H]1OC(OC(C)=O)[C@H](NC(=O)/C=C(C)/C=C/C=C(C)/C=C/C2=C(C)CCCC2(C)C)[C@@H](OC(C)=O)[C@@H]1OC(C)=O (single isomer, unassigned) [1,3,4,6-tetra-O-acetyl-N-retinoyl-D-glucosamine (9-cis isome] [listing 2 of 2 here] | 0.0 |  |  |  |  |  | 
CC(=O)OC[C@H]1OC(OC(C)=O)[C@H](NC(=O)/C=C(C)/C=C/C=C(C)/C=C/C2=C(C)CCCC2(C)C)[C@@H](OC(C)=O)[C@@H]1OC(C)=O (single isomer, unassigned) [1,3,4,6-tetra-O-acetyl-N-retinoyl-D-glucosamine (13-cis isom] | 0.0 |  |  |  |  |  | 
CC(=O)OC[C@H]1OC(OC(C)=O)[C@H](NC(=O)/C=C(C)/C=C/C=C(C)/C=C/C2=C(C)CCCC2(C)C)[C@@H](OC(C)=O)[C@@H]1OC(C)=O (single isomer, unassigned) [1,3,4,6-tetra-O-acetyl-N-retinoyl-D-glucosamine (cis isomer/] | 0.0 |  |  |  |  |  | 
CC(C=CC1=C(C)CCCC1(C)C)=CC=CC(C)=CC(=O)N[C@H]1C(O)O[C@H](CO)[C@@H](O)[C@@H]1O (single isomer, unassigned) [N-retinoyl-D-glucosamine (9-cis isomer/13-cis isomer/trans i] |  | 0.1 |  |  |  |  | 
CC(C=CC1=C(C)CCCC1(C)C)=CC=CC(C)=CC(=O)N[C@H]1C(O)O[C@H](CO)[C@@H](O)[C@@H]1O (single isomer, unassigned) [N-retinoyl-D-glucosamine (9-cis isomer/trans isomer = 0.5/99.5), N-retinoyl-D-glucosamine] | 0.1 |  |  |  |  |  | 
CC(C=CC1=C(C)CCCC1(C)C)=CC=CC(C)=CC(=O)N[C@H]1C(O)O[C@H](CO)[C@@H](O)[C@@H]1O (single isomer, unassigned) [N-retinoyl-D-glucosamine (13-cis isomer/trans isomer = 0.5/99.5), N-retinoyl-D-glucosamine] | 0.0 |  |  |  |  |  | 
CC(C=CC1=C(C)CCCC1(C)C)=CC=CC(C)=CC(=O)N[C@H]1C(O)O[C@H](CO)[C@@H](O)[C@@H]1O (single isomer, unassigned) [N-retinoyl-D-glucosamine (cis isomer/trans isomer = 0/100), N-retinoyl-D-glucosamine] | 0.0 |  |  |  |  |  | 
CC(C=CC1=C(C)CCCC1(C)C)=CC=CC(C)=CC(=O)N[C@H]1C(O)O[C@H](CO)[C@@H](O)[C@@H]1O (single isomer, unassigned) [N-retinoyl-D-glucosamine] |  |  | 0 | 0 | 4 | 2 | Wrinkle-improving rate [1]: 89%; Texture-improving rate [2]: 75%; Skin roughness-improving rate [3]: 127%; Acne treating effect (acne patients): 100%; Whitening-improving effect [4]: +++
CC(=O)OC[C@H]1OC(OC(C)=O)[C@H](NC(=O)/C=C(C)/C=C/C=C(C)/C=C/C2=C(C)CCCC2(C)C)[C@@H](OC(C)=O)[C@@H]1OC(C)=O (stereo partly drawn) [1,3,4,6-tetra-O-acetyl-N-retinoyl-D-glucosamine] |  | 0.0 |  |  |  |  | 
CCCCCCCCCCCCCCCCOCCOCCOC(=O)N[C@H]1C(O)O[C@H](CO)[C@@H](O)[C@@H]1O (stereo partly drawn) [N-POE (2) hexadecyletheroxycarbonyl-D-glucosamine] |  | 0.1 | 0 | 2 | 0 | 3 | Wrinkle-improving rate [1]: 72%; Texture-improving rate [2]: 89%; Skin roughness-improving rate [3]: 139%; Acne treating effect (acne patients): 60%; Whitening-improving effect [4]: ++
CC(C)CCCCCCCCCCCCCCC(=O)N[C@H]1C(O)O[C@H](CO)[C@@H](O)[C@@H]1O (stereo partly drawn) [N-isostearoyl-D-glucosamine] |  | 0.1 | 0 | 2 | 0 | 3 | 
CCCCCCCCCCCC(=O)N[C@H]1C(O)O[C@H](CO)[C@@H](O)[C@@H]1O (stereo partly drawn) [N-lauroyl-D-glucosamine] |  | 0.1 | 1 | 1 | 0 | 1 | 
CCCCC/C=C\C/C=C\CCCCCCCC(=O)N[C@H]1C(O)O[C@H](CO)[C@@H](O)[C@@H]1O (stereo partly drawn) [N-linoleoyl-D-glucosamine] |  | 0.3 | 1 | 3 | 0 | 1 | 
CCCCCCCC/C=C\CCCCCCCC(=O)N[C@H]1C(O)O[C@H](CO)[C@@H](O)[C@@H]1O (stereo partly drawn) [N-oleoyl-D-glucosamine] |  | 0.2 | 0 | 2 | 0 | 3 | 
CC1=C(/C=C/C(C)=C/C=C/C(C)=C/C(=O)O)C(C)(C)CCC1 [Retinoic acid, reference compound] |  | 8.0 |  |  |  |  | 
